Where two headings read alike, the source gives them in different places.
How the values were obtained:
[1] = test system: 5637; assay: CellTiter-Glo cytotoxicity assay, single agents (Stage 1); assay type: cell-based; settings: CTG assay 72 h
Protocol: (§1) A2780, SK-OV-3, OVCAR-3, NCI-H460, NCI-H1975, NCI-H2122, 5637 and HT1376 were cultured in RPMI Medium 1640 (Invitrogen-22400105) supplemented with 10% fetal bovine serum (FBS; Invitrogen-10099141). All the cell lines were maintained in a humidified incubator at 37° C. with 5% CO2. Cell culture media and supplements were purchased from Invitrogen, and tissue culture flasks were purchased from Corning, 96-well plates and 384-well plates were purchased from Greiner. CellTiter-Glo Luminescent Cell Viability Assay kits were purchased from Promega (Promega-G7573), cells counter Vi-Cell was purchased from Beckman, detection instrument Envision was purchased from PerkinElmer.
(§2) Paclitaxcel (used as a reference) and cisplatin were purchased from SELLECK, and they were of highest purity available. All compounds attained solubility in DMSO and when diluted into culture media. DMSO, compounds solutions and culture media were warmed to 37° C. for the solution preparation and dilutions.
(§3) Eight cell lines were allowed to adhere to 96-well plates overnight (100 μL/well), for drug treatments with 3.16 fold dilution, 9 dose points, triplicates or vehicle control, compound stock solutions were prepared in DMSO and added to the wells to give the indicated final drug concentrations. Final DMSO concentration was 0.5%. Cellular ATP concentrations were assessed by using the CellTiter-Glo Cell Viability Assay as per the manufacturer's instructions 72 h after drug addition.
(§4) In Stage 1 the IC50 (using 5 or more concentrations) of each individual compound (cisplatin, gemcitabine and NUC-1031) in the relevant cell lines was determined.

[2] = test system: A2780; assay: as above; assay type: cell-based; settings: CTG assay 72 h
Protocol: as §1, §2, §3, §4

[3] = test system: HT1376; assay: as above; assay type: cell-based
Protocol: as §1, §2, §3, §4

[4] = test system: NCI-H1975; assay: as above; assay type: cell-based; settings: CTG assay 72 h
Protocol: as §1, §2, §3, §4

[5] = test system: NCI-H460; assay: as above; assay type: cell-based; settings: CTG assay 72 h
Protocol: as §1, §2, §3, §4

[6] = test system: OVCAR-3; assay: as above; assay type: cell-based; settings: CTG assay 72 h
Protocol: as §1, §2, §3, §4

[7] = test system: SK-OV3; assay: as above; assay type: cell-based
Protocol: as §1, §2, §3, §4

[8] = test system: HT1376 (Bladder); assay: CellTiter-Glo combination analysis (Stage 2); assay type: cell-based; settings: cisplatin alone dose-effect curve
Protocol: A2780, SK-OV-3, OVCAR-3, NCI-H460, NCI-H1975, NCI-H2122, 5637 and HT1376 were cultured in RPMI Medium 1640 (Invitrogen-22400105) supplemented with 10% fetal bovine serum (FBS; Invitrogen-10099141). All the cell lines were maintained in a humidified incubator at 37° C. with 5% CO2. Cell culture media and supplements were purchased from Invitrogen, and tissue culture flasks were purchased from Corning, 96-well plates and 384-well plates were purchased from Greiner. CellTiter-Glo Luminescent Cell Viability Assay kits were purchased from Promega (Promega-G7573), cells counter Vi-Cell was purchased from Beckman, detection instrument Envision was purchased from PerkinElmer. 8 cell lines were allowed to adhere to 384 well plates overnight (60 μL/well), for combination study, four combinations of two compounds will be investigated twice, keeping one compound at a fixed concentration while increasing the concentration of the second compound (10 fold dilution, 5 dose points), compound stock solutions were prepared in DMSO and added to the wells to give the indicated final drug concentrations by D300e digital dispenser. […] Cellular ATP concentrations were assessed by using the CellTiter-Glo Cell Viability Assay as per the manufacturer's instructions 72 hours after drug addition. Stage 2 determined the interaction of selected combinations of compounds on cancer cell growth. […]

[9] = test system: SKOV3 cells; assay: Sulforhodamine B (SRB) assay, single agent; assay type: cell-based; settings: SRB assay on day 4, read-out: IC50
Protocol: SKOV3 cells were purchased from American Type Culture Collection (ATCC). They were cultured at 37° C. and 5% CO2 in Gibco™ RMPI Medium 1640+GlutaMAX™-I (Life Technologies; 61870-010) with 10% Gibco™ FBS (Life Technologies; 10270-106) and 1% Gibco™ Penicillin-Streptomycin (Life Technologies; Ser. No. 15/140,122), known as complete medium, in a cell culture flask. Cisplatin was purchased from TEVA UK Limited (PL 00289/1146). Fluvastatin and Sulforaphane were both purchased from Merck Millipore Corporation (Catalogue numbers 344096 and 574215 respectively). (S)-NUC-1031 was provided by NuCana® Ltd.
SKOV3 cells were plated at 250 cells in 200 μl per well in the middle 60 wells of Costar® 3596 96-well plates, with the outer 36 wells filled with 200 μl PBS each. The cells were allowed to grow in complete medium for 48 hours before different drug compounds were added in. For single agent, cisplatin, (S)-NUC-1031, fluvastatin and sulforaphane in complete medium at 10 different concentrations were added into the middle 60 wells (Day 0). Each concentration was loaded in sextuplicate. Cells were exposed to the compounds for 24 hours and the compounds were replaced by pure complete medium. The experiment with fluvastatin was repeated with 4-day exposure instead of 24 hours. The plates were fixed with 50 μl 25% TCA solution at 4° C. for 60 minutes on day 4 after the drug compounds were added for Sulforhodamine B assay (see below).
After adding the TCA solution, the plates were washed under running tap water 10 times and were allowed to dry in the oven at 50° C. The cells were then stained with 50 μl SRB dye, and the dye was washed off with 1% glacial acetic acid for 4 times 30 minutes after SRB addition. The plates were then dried in the oven. SRB dye was allowed to dissolve in 150 μl 10 mM Tris buffer solution for 60 minutes on a rocker. The plates were read on Biohit BP800 Microplate Reader (Biohit Healthcare) and the absorbance was measured at 540 nm. […]

[10] = test system: biliary tract cancer; settings: cited from earlier work
[11] = absolute IC50, read-out: Ab IC50
[12] = CTG assay 72 h, absolute IC50, read-out: Ab IC50
[13] = CTG assay 72 h, relative IC50, read-out: IC50
[14] = Homo sapiens, absolute IC50, read-out: Ab IC50
[15] = Homo sapiens, relative IC50, read-out: IC50

Compound: N.N.[Cl][Pt][Cl] [Cisplatin, cisplatin]
- Max Inhibition_% [1]: 101.74%
- IC50 [1, 11]: 13.7 µM
- IC50 ([1]; relative IC50, read-out: IC50): 13.2 µM
- Max Inhibition_% [2]: 99.05%
- IC50 [2, 11]: 11 µM
- IC50 ([2]; relative IC50, read-out: IC50): 10.1 µM
- Max Inhibition_% ([3]; CTG assay 72 h): 71.90%
- IC50 [3, 12]: 20.5 µM
- IC50 [3, 13]: 18.4 µM
- Max Inhibition_% [4]: 103.60%
- IC50 [4, 11]: 69.5 µM
- IC50 ([4]; relative IC50, read-out: IC50): 69.2 µM
- Max Inhibition_% [5]: 97.56%
- IC50 [5, 11]: 2.59 µM
- IC50 ([5]; relative IC50, read-out: IC50): 2.57 µM
- Max Inhibition_% [6]: 79.59%
- IC50 [6, 11]: 28.3 µM
- IC50 ([6]; relative IC50, read-out: IC50): 23.5 µM
- Max Inhibition_% ([7]; CTG assay 72 h): 86.42%
- IC50 [7, 12]: 45.6 µM
- IC50 [7, 13]: 33.7 µM
- IC50 ([8]; listed as Cisplatin 2, read-out: IC50 (curve shift method)): 58 µM
- IC50 ([8]; read-out: IC50 (curve shift method)): 64.5 µM
- IC50 ([9]; 24 hours exposure): 2.44 µM

Compound: Nc1ccn([C@@H]2O[C@H](CO)[C@@H](O)C2(F)F)c(=O)n1 [Gemcitabine]
- Max Inhibition_% [1]: 84.49%
- IC50 [1, 11]: 0.01 µM
- IC50 ([1]; relative IC50, read-out: IC50): 0.01 µM
- Max Inhibition_% [2]: 81.15%
- IC50 [2, 14]: 0.01 µM
- IC50 [2, 15]: 0.01 µM
- Max Inhibition_% ([3]; CTG assay 72 h): 9.60%
- IC50 ([3]; Homo sapiens, HT-1376, CTG assay 72 h, absolute IC50, read-out: Ab IC50): > 1.98 µM
- IC50 ([3]; Homo sapiens, HT-1376, CTG assay 72 h, relative IC50, read-out: IC50): > 1.98 µM
- Max Inhibition_% [4]: 62.12%
- IC50 [4, 14]: 0.08 µM
- IC50 [4, 15]: 0.02 µM
- Max Inhibition_% [5]: 96.28%
- IC50 [5, 14]: 0.01 µM
- IC50 [5, 15]: 0.01 µM
- Max Inhibition_% [6]: 6.95%
- IC50 [6, 14]: > 1.98 µM
- IC50 [6, 15]: 0.02 µM
- Max Inhibition_% ([7]; CTG assay 72 h): 65.74%
- IC50 ([7]; Homo sapiens, SK-OV-3, CTG assay 72 h, absolute IC50, read-out: Ab IC50): 0.02 µM
- IC50 ([7]; Homo sapiens, SK-OV-3, CTG assay 72 h, relative IC50, read-out: IC50): 0.02 µM
- overall survival (median) ([10]; ABC-02, 410 patients with BTC): 8.1 months
- progression-free survival (median) ([10]; ABC-02, patients with BTC): 5 months

Compound: C[S+]([O-])CCCCN=C=S (stereo not drawn) [sulforaphane, Sulforaphane]
- IC50 ([9]; Homo sapiens, SK-OV-3, 24 hours exposure): 7 µM
